These compounds were tested against Glycogen synthase kinase-3 beta (Homo sapiens, UniProt P49841) (assay: concentration-response blocking of human GSK3B – biochemical, luminescence, cell-free homogeneous, retest, dose response (AID 434954)).
Glycogen synthase kinase-3 beta, sequence (P49841 whole entry): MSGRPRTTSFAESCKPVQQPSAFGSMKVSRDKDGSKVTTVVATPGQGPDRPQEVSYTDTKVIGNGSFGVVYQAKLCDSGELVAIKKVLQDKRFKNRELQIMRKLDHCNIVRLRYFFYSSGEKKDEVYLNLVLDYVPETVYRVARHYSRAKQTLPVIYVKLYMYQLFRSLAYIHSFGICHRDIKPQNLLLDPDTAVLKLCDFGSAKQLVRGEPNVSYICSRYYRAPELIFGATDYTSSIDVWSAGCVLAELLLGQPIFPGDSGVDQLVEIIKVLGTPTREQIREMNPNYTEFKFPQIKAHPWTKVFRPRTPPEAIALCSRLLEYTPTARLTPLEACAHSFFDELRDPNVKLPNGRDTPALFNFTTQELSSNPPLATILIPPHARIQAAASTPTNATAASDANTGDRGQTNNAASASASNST

Compared with `CC(C)Nc1nc(N)c(C(=O)C23CC4CC(CC(C4)C2)C3)s1` [1-adamantyl-[4-azanyl-2-(propan-2-ylamino)-1,3-thiazol-5-yl]methanone], `CSc1nc(N)c2c3c(sc2n1)CN(C)CC3` [7-methyl-2-methylsulfanyl-6,8-dihydro-5H-pyrido[4,5]thieno[1,2-c]pyrimidin-4-amine] is 3.1-fold higher in EC50: 23.5 µM for the first, 73.2 µM for the second. The first is the more potent here.

Compared with `c1ccc(CSc2nnc(-c3ccncc3)o2)cc1`, `Cc1ccc(CSc2ccc(-c3cccs3)nn2)cc1` [3-[(4-methylphenyl)methylsulfanyl]-6-thiophen-2-ylpyridazine] is higher in EC50: 5.14 µM for the first, > 300 µM for the second.

Compared with `CNc1nc2c(N)ncnc2n1[C@H]1O[C@@H](CO)[C@H](O)[C@@H]1O` [(2S,3S,4R,5S)-2-[6-amino-8-(methylamino)purin-9-yl]-5-(hydroxymethyl)oxolane-3,4-diol], `CCSc1ncnc2c(C#N)c3n(c12)CCCCC3` [4-ethylsulfanyl-7,8,9,10-tetrahydro-6H-pyrimido[3,4]pyrrolo[3,5-a]azepine-11-carbonitrile] is lower in EC50: > 300 µM for the first, 77.5 µM for the second. The second is the more potent here.

`Cc1cc(N2CCC(C)CC2)nc(-c2ccccc2O)n1` [(6E)-6-[6-methyl-4-(4-methyl-1-piperidinyl)-1H-pyrimidin-2-ylidene]-1-cyclohexa-2,4-dienone] and `CNC(=O)c1ccccc1NC(=O)c1cccc(S(=O)(=O)N2CCC(C)CC2)c1` [N-methyl-2-({3-[(4-methylpiperidin-1-yl)sulfonyl]benzoyl}amino)benzamide] cannot be ordered by EC50: > 300 µM for the first, > 300 µM for the second.

Compared with `Cc1[nH]nc2c1C(c1ccc(O)cc1)C1C(=O)CC(C)(C)CC1=N2` (centres undefined), `Cc1ccc(C2c3c(C)noc3N=C3CC(C)(C)CC(=O)C32)cc1` (centres undefined) [MLS000568466] is higher in EC50: 2.06 µM for the first, > 300 µM for the second. The first is the more potent here.

`COC(=O)c1cccc(Nc2nc(-c3ccncc3)nc3ccccc23)c1` [MLS001163930] and `Oc1cccc(Nc2nc(-c3ccccc3)nc3ccccc23)c1` cannot be ordered by EC50: > 300 µM for the first, > 300 µM for the second.

`CSc1nc(-c2cccs2)c(C#N)c(=O)[nH]1` [MLS000849828] and `CSc1nc2n(n1)C(c1cccs1)C1C(=O)CCCC1=N2` (centres undefined) [SMR000295648] cannot be ordered by EC50: > 300 µM for the first, > 300 µM for the second.

`O=C(Nc1ccc2c(c1)OCO2)Nc1ccc(F)cc1F` and `O=C(COc1ccccc1Cl)Nc1ccc2c(c1)OCCO2` [2-(2-chloranylphenoxy)-N-(2,3-dihydro-1,4-benzodioxin-6-yl)ethanamide] cannot be ordered by EC50: > 300 µM for the first, > 300 µM for the second.

`COc1ccc(Cl)cc1-c1nc(N)nc(N(C)C)n1` [MLS000698391] and `COc1ccc(OC)c(-c2cc(-c3cccnc3)nc(N)c2C#N)c1` [2-amino-4-(2,5-dimethoxyphenyl)-6-pyridin-3-ylpyridine-3-carbonitrile] cannot be ordered by EC50: > 300 µM for the first, > 300 µM for the second.

`COc1ccc(-n2c(=O)c3c4c(sc3n3c(S)nnc23)CCCC4)cc1` [1-mercapto-4-(4-methoxyphenyl)-6,7,8,9-tetrahydro[1]benzothieno[3,2-e][1,2,4]triazolo[4,3-a]pyrimidin-5(4H)-one] and `CC(C)C1Cc2c(sc3c2c(=O)n(-c2ccccc2)c2n[nH]c(=S)n32)CO1` (centres undefined) [7-Isopropyl-1-mercapto-4-phenyl-6,9-dihydro-4H,7H-8-oxa-10-thia-2,3,4,10b-tetraaza-cyclopenta[a]fluo ren-5-one] cannot be ordered by EC50: > 300 µM for the first, > 300 µM for the second.

`Cc1ccc(-c2cc(C(=O)NCCc3ccccn3)c3ccccc3n2)c(C)c1` [SMR000264677] and `Cc1ccc(CSc2ccc3nnc(-c4ccccn4)n3n2)cc1` cannot be ordered by EC50: > 300 µM for the first, > 300 µM for the second.

`O=C(/[O+]=N/[CH-]c1ccc(N2CCCCC2)c([N+](=O)[O-])c1)c1c(F)cccc1F` [MLS000326582] and `COc1cccc2c1cc1c(=O)n(CC(=O)N3CCCCCC3)nc(C)n12` [2-[2-(azepan-1-yl)-2-oxidanylidene-ethyl]-9-methoxy-4-methyl-[1,2,4]triazino[4,5-a]indol-1-one] cannot be ordered by EC50: > 300 µM for the first, > 300 µM for the second.

Going from `Cn1c(=O)c2[nH]c(CN3CCN(Cc4ccccc4)CC3)nc2n(C)c1=O` [SMR000120891] to `CCc1nc2oc3cc(OC)ccc3c(=O)c2c(=O)n1Cc1ccccc1` [2-ethyl-8-methoxy-3-(phenylmethyl)chromeno[2,3-d]pyrimidine-4,5-dione], the EC50 falls from > 300 µM to 4.2 µM. The second is the more potent here.

Compared with `Cc1cc(Br)ccc1NC(=O)CN1C(=O)CCC1=O`, `CC1=C(C#N)C(=O)NC(=O)C1=NNc1ccc(Cl)c(C(=O)O)c1` [MLS001213189] is lower in EC50: > 300 µM for the first, 39.8 µM for the second. The second is the more potent here.

Compared with `CCOc1ccc2c(c1)-c1c(ssc1=S)C(C)(C)N2C` [MLS000529181], `CCOC(=O)c1nnn(-c2nonc2N)c1-c1ccc(OCC)cc1` [1-(4-amino-1,2,5-oxadiazol-3-yl)-5-(4-ethoxyphenyl)-4-triazolecarboxylic acid ethyl ester] is lower in EC50: > 300 µM for the first, 20 µM for the second. The second is the more potent here.

Compared with `CC(Sc1ccc2nnc(-c3ccc(F)cc3)n2n1)C(=O)O` (centres undefined) [2-[[3-(4-fluorophenyl)-[1,2,4]triazolo[4,3-b]pyridazin-6-yl]sulfanyl]propanoic acid], `COC(=O)CSc1ccc2nnc(-c3ccc(OC)c(OC)c3)n2n1` is higher in EC50: 21.4 µM for the first, > 300 µM for the second. The first is the more potent here.

`CCN(c1ccccc1)S(=O)(=O)c1cc(NC(=O)Nc2ccccc2C#N)ccc1Cl` [MLS000395038] and `CCOc1ccc(NC(=O)COC(=O)c2ccc3c(c2)C(=O)N(CCc2ccccc2)C3=O)cc1` [SMR000261375] cannot be ordered by EC50: > 300 µM for the first, > 300 µM for the second.

Compared with `Cc1onc(-c2ccccc2)c1C(=O)n1cccn1`, `CC1=Nc2ncnn2C(c2cccnc2)C1C(=O)OCc1ccccc1` (centres undefined) [(phenylmethyl) 5-methyl-7-pyridin-3-yl-1,7-dihydro-[1,2,4]triazolo[1,5-a]pyrimidine-6-carboxylate] is lower in EC50: > 300 µM for the first, 28 µM for the second.

`O=C(Nc1cccc2c1C(=O)NC2=O)c1cccnc1Cl` [N-[1,3-bis(oxidanylidene)isoindol-4-yl]-2-chloranyl-pyridine-3-carboxamide] and `Cc1cccc(Nc2ccccc2C(=O)O)c1C` cannot be ordered by EC50: > 300 µM for the first, > 300 µM for the second.

`Cc1nn(C)c(C)c1S(=O)(=O)N(CC(=O)Nc1nccs1)c1ccc(C(C)C)cc1` [MLS000118397] and `CCc1cccc(C)c1NC(=O)CSc1nnc(CCCOc2ccc(Cl)cc2Cl)n1C` [2-({5-[3-(2,4-dichlorophenoxy)propyl]-4-methyl-4H-1,2,4-triazol-3-yl}thio)-N-(2-ethyl-6-methylphenyl)acetamide] cannot be ordered by EC50: > 300 µM for the first, > 300 µM for the second.

`O=C(NC1CCCCCC1)C1CCCN(S(=O)(=O)c2cccs2)C1` (centres undefined) [N-cycloheptyl-1-thiophen-2-ylsulfonylpiperidine-3-carboxamide] and `CC1CCCN(S(=O)(=O)c2ccc(Br)s2)C1` (centres undefined) [SMR000021898] cannot be ordered by EC50: > 300 µM for the first, > 300 µM for the second.

First: Cc1cccc2cc3c(NC(=O)C(C)(C)C)nn(CC(C)C)c3nc12
Second: Nc1nc(Nc2ccccc2F)nc(NCCO)c1[N+](=O)[O-] [2-[6-Amino-2-(2-fluoro-phenylamino)-5-nitro-pyrimidin-4-ylamino]-ethanol]
The EC50 of the first is higher: > 300 µM for the first, 15.6 µM for the second. The second is the more potent here.

`CSc1nc2c(c(=O)[nH]1)C(c1ccccc1)C1C(=O)CC(C)(C)CC1=N2` (centres undefined) [8,8-dimethyl-2-(methylthio)-5-phenyl-5,8,9,10-tetrahydropyrimido[4,5-b]quinoline-4,6(3H,7H)-dione] and `CC(C)Sc1nc2c(c(=O)[nH]1)C(c1cccs1)C1C(=O)CC(C)(C)CC1=N2` (centres undefined) [8,8-dimethyl-2-propan-2-ylsulfanyl-5-thiophen-2-yl-5,7,9,10-tetrahydro-1H-pyrimido[4,5-b]quinoline-4,6-dione] cannot be ordered by EC50: > 300 µM for the first, > 300 µM for the second.

Going from `Nc1nonc1-n1nnc(C(=O)NN=Cc2cccc(Cl)c2)c1CN1CCCCCC1` [MLS000950585] to `Nc1nonc1-n1nnc(C(=O)NN=Cc2ccccc2O)c1CN1CCCC1` [1-(4-amino-1,2,5-oxadiazol-3-yl)-N'-[(E)-(6-oxo-1-cyclohexa-2,4-dienylidene)methyl]-5-(1-pyrrolidinylmethyl)-4-triazolecarbohydrazide], the EC50 rises from 4 µM to 24.6 µM (6.2-fold). The first is the more potent here.

Going from `Cc1cc2cc(CN(CCCN3CCOCC3)C(=O)NC3CCCCC3)c(=O)[nH]c2cc1C` [3-cyclohexyl-1-[(6,7-dimethyl-2-oxo-1H-quinolin-3-yl)methyl]-1-(3-morpholin-4-ylpropyl)urea] to `Cc1cc2nc(-c3cccnc3O)[nH]c2cc1C`, the EC50 falls from > 300 µM to 8.16 µM. The second is the more potent here.

`CC[n+]1c(CC=Nc2ccccc2)sc2ccccc21` and `c1ccc(CCCCNCC2COc3ccccc3O2)cc1` (centres undefined) [N-(2,3-dihydro-1,4-benzodioxin-3-ylmethyl)-4-phenylbutan-1-amine] cannot be ordered by EC50: > 300 µM for the first, > 300 µM for the second.

First: Nc1nc(NCCO)nc(NCc2ccccc2)c1[N+](=O)[O-] [2-[[4-amino-6-(benzylamino)-5-nitropyrimidin-2-yl]amino]ethanol]
Second: CN(C)CCCNc1nc(N)c([N+](=O)[O-])c(NCc2ccccc2)n1 [MLS001165050]
The EC50 of the first is 1.9-fold lower: 20.2 µM for the first, 38 µM for the second.

Going from `Cc1cc(-c2n[nH]c3c2C(c2cccc(O)c2)C(C#N)C(=N)O3)c(C)s1` (centres undefined) [SMR000136653] to `O=C(NNC(=O)C1CC1)c1cc2cc3ccccc3nc2s1` [MLS000763570], the EC50 rises from 25.4 µM to > 300 µM. The first is the more potent here.

First: CCCNC(=O)c1ccc(Cl)cc1Cl [SMR000528064]
Second: CNc1nc(N)c([N+](=O)[O-])c(Nc2cccc(Cl)c2)n1 [SMR000434546]
The EC50 of the first is higher: > 300 µM for the first, 11.7 µM for the second. The second is the more potent here.

`CCOC(=O)CSc1ccc2nnc(-c3cccnc3)n2n1` [SMR000018940] and `COc1cccc(-c2ccc3nnc(SCC(=O)Nc4ccc(NC(C)=O)cc4)n3n2)c1` [N-(4-acetamidophenyl)-2-[[6-(3-methoxyphenyl)-[1,2,4]triazolo[4,3-b]pyridazin-3-yl]sulfanyl]ethanamide] cannot be ordered by EC50: > 300 µM for the first, > 300 µM for the second.

`COc1ccc(C2=NOC(C(=O)Nc3cccnc3)C2)cc1` (centres undefined) [SMR000130842] and `COc1ccc(Nc2ccccc2C(=O)O)cc1` [SMR000370544] cannot be ordered by EC50: > 300 µM for the first, > 300 µM for the second.

Going from `CC(=NNC(=O)c1nnn(-c2nonc2N)c1CN1CCc2ccccc21)c1ccccc1O` [MLS001076839] to `COc1ccc2occ(C(=O)c3ccc(N)cc3)c2c1` [SMR000539215], the EC50 falls from > 300 µM to 14.7 µM. The second is the more potent here.

`O=C(NN=Cc1ccco1)c1ccn[nH]1` [SMR000279368] and `COc1cccc(C(=O)CN2C=CC=CC2=CN=O)c1` [2-[(hydroxyimino)methyl]-1-[2-(3-methoxyphenyl)-2-oxoethyl]pyridinium] cannot be ordered by EC50: > 300 µM for the first, > 300 µM for the second.

`Cc1sc2ncnc(N3CCCCC3C)c2c1C` (centres undefined) and `COCCn1c(SCC(=O)NC(=O)NC(C)C)nc2ccccc21` [2-[1-(2-methoxyethyl)benzimidazol-2-yl]sulfanyl-N-(propan-2-ylcarbamoyl)ethanamide] cannot be ordered by EC50: > 300 µM for the first, > 300 µM for the second.

With `O=S1(=O)CC2SC(=S)N(c3ccccc3)C2C1` (centres undefined) the EC50 was > 300 µM.

From BindingDB's records for doi:10.7270/Q2TX3CTT (Broad Institute, 2010)
